Measured values from paper PMC5872703, “The Postprandial Anti-Hyperglycemic Effect of Pyridoxine and Its Derivatives Using In Vitro and In Vivo Animal Models” (Nutrients, 2018).
Values joined by “and” are separate entries in the source; they are usually repeats but may differ in a detail not shown here. Equal values may be shown once. Marks after values point to notes of the source that are not given here.

Tests used:
Sprague-Dawley (SD) rats [1] = test: Starch loading test, postprandial blood glucose; type: in vivo, rat; conditions: for BGL AUCt / blood glucose level / increase in blood glucose level: SD rats; for BGL AUCt: starch 2.0 g/kg; for blood glucose level / increase in blood glucose level: starch 2.0 g/kg oral, 30 min after administration
Method: (§1) All animal procedures were approved by Institutional Animal Care and Use Committee (IACUC) of the Hannam University (Approval number: HNU2017-003). Four-week-old male SD rats were purchased from Raon Bio Co. (Gyeonggi-do, Korea) and fed a solid diet (Raon Bio Co., Gyeonggi-do, Korea) for one week. The rats were housed in a ventilated room at 23 ± 2 °C with 50 ± 5% relative humidity, and under an alternating 12 h light/dark cycle. […] The blood samples were then taken from the tail after administration and blood glucose levels were measured at 0, 0.5, 1, 2, and 3 h.

Sprague-Dawley (SD) rats [2] = test: Sucrose loading test, postprandial blood glucose; type: in vivo, rat; conditions: for BGL AUCt / blood glucose level / change (increase) of blood glucose level: SD rats; for BGL AUCt: sucrose 2.0 g/kg; for blood glucose level / change (increase) of blood glucose level: sucrose 2.0 g/kg oral, 30 min after administration
Method: as §1

[3] = test system: rat intestinal α-glucosidase; test: Rat intestinal α-glucosidase inhibition assay (pNPG); type: biochemical; conditions: for IC50 Rat intestinal α-Glucosidase: mean ± S.D.
Method: The rat intestinal α-glucosidase assay was administered as per the method of Kwon et al. with slight modification. A total of 1 g of rat-intestinal acetone powder was suspended in 3 mL of 0.1 M sodium phosphate buffer (pH 6.9), and the suspension was sonicated 12 times for 30 s at 4 °C. After centrifugation (10,000× g, 30 min, 4 °C), the resulting supernatant was used for the assay. Sample solution (50 μL) and 0.1 phosphate buffer (pH 6.9, 100 μL) containing α-glucosidase (Sigma-Aldrich, St. Luis, MO, USA) solution (1.0 U/mL) was incubated at 37 °C for 10 min. After pre-incubation, 5 mM p-nitrophenyl-α-D-glucopyranoside solution (50 μL) in 0.1 M phosphate buffer (pH 6.9) was added to each well at timed intervals. The reaction mixtures were incubated at 37 °C for 30 min. Before and after incubation, absorbance was read at 405 nm and compared to a control, which had 50 μL of buffer solution in place of the extract by micro-plate reader (SUNRISE; Tecan Trading AG, Salzburg, Austria). The α-glucosidase inhibitory activity was expressed as inhibition % and was calculated as follows: Inhibition(%)=(ΔA 405 (Control)−ΔA 405(Extract)/ΔA 405 (Control))×100

[4] = target: T1, porcine pancreatic α-amylase (Sus scrofa, UniProt P00690); test: Porcine pancreatic α-amylase inhibition assay; type: biochemical; conditions: for IC50: mean ± S.D.
T1 sequence (P00690 16-511): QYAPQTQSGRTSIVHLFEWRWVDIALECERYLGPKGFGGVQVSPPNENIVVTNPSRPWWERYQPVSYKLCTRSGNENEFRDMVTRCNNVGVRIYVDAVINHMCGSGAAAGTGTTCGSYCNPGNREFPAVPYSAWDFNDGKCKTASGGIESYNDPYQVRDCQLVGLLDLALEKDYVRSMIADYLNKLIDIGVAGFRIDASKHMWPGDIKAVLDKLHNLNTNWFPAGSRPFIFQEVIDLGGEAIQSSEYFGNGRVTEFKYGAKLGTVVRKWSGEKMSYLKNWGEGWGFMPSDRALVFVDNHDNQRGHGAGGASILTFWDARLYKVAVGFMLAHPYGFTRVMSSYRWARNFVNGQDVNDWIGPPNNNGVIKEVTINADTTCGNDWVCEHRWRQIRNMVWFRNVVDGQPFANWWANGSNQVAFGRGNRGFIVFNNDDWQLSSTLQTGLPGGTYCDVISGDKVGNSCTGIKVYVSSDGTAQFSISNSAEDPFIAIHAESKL
Method: The porcine pancreatic α-amlyase inhibition assay was administered as per the method of Kwon et al. Sample solution (200 μL) and 0.02 M sodium phosphate buffer (pH 6.9 with 0.006 M sodium chloride, 500 μL) containing α-amylase solution (0.5 mg/mL, 5.0 MU/mL) were incubated at 25 °C for 10 min. After preincubation, 500 μL of a 1% starch solution in 0.02 M sodium phosphate buffer was added. The reaction mixture was then incubated at 25 °C for 10 min. The reaction was stopped with 1.0 mL of dinitrosalicylic acid (DNS). The reaction mixture was then incubated in a boiling water bath for 5 min and cooled to room temperature. The reaction mixture at 540 nm with ELISA microplate reader (SUNRISE; Tecan Trading AG, Saltzburg, Austria).

Rat Intestinal SUCRASE = target: T2, Rat Intestinal SUCRASE (Rattus norvegicus, UniProt P23739); test: Sucrase inhibition assay (rat intestinal acetone powder); type: biochemical; conditions: mean ± S.D.
T2 construct: The crude enzyme solution prepared from rat intestinal acetone powder; tissue Sigma-Aldrich Co; host or cells: rat intestine (acetone powder)
T2 sequence (P23739 whole entry): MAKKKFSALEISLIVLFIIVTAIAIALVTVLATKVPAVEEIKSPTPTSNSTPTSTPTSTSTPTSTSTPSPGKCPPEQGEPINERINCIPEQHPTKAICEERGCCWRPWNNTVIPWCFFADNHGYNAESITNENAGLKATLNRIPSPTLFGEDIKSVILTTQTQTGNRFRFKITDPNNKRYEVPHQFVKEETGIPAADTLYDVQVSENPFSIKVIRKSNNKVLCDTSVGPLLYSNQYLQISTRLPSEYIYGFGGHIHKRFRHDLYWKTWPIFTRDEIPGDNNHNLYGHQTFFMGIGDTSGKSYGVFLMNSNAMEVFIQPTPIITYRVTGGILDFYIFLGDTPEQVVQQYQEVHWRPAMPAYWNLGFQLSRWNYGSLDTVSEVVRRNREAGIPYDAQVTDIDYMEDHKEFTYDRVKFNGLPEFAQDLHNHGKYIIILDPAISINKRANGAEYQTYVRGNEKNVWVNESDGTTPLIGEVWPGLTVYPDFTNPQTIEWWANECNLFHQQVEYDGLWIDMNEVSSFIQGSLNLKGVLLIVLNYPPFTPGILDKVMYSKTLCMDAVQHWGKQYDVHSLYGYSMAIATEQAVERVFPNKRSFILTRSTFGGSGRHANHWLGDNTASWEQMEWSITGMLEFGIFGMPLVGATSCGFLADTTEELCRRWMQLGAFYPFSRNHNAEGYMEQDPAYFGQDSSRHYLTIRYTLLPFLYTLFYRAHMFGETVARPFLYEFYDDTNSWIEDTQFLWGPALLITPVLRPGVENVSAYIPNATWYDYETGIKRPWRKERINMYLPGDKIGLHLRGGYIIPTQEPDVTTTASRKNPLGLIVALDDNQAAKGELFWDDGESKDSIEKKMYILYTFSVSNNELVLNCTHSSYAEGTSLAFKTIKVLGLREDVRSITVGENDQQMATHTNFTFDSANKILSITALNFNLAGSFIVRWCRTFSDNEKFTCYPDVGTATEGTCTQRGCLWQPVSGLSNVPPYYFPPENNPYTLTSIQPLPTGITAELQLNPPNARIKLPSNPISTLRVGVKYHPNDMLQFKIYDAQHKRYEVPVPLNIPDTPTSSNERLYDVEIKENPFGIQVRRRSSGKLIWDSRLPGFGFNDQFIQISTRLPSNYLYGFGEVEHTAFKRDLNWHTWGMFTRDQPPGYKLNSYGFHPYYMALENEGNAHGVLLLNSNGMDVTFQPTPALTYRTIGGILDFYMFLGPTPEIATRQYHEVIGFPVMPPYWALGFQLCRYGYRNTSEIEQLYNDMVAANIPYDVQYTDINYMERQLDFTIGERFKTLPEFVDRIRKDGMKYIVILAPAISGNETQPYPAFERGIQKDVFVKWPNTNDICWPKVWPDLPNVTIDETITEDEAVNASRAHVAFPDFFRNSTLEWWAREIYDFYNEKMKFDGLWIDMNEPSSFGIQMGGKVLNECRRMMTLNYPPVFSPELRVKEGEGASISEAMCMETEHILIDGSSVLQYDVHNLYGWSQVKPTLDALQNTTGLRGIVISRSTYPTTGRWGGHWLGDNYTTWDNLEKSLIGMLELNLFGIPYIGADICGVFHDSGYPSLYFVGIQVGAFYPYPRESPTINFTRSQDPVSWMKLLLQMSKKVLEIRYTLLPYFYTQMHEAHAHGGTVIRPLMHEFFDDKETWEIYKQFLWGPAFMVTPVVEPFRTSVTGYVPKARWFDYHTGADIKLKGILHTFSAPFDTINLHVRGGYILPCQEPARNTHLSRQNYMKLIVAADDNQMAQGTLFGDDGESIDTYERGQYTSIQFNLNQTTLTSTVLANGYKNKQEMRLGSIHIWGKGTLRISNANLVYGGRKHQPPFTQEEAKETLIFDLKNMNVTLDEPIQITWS
Method: (§2) The crude enzyme solution prepared from rat intestinal acetone powder Sigma-Aldrich Co. (St. Louise, MO, USA) was used as the small intestinal maltase, sucrose, and glucoamylase, showing specific activities of 0.70, 0.34, and 0.45 units/mL, respectively. Rat intestinal acetone powder (1.0 g) was suspended in 3 mL of 0.1 M sodium phosphate buffer, and the suspension was sonicated 12 times for 30 s at 4 °C. After centrifugation (10,000 × g, 30 min, 4 °C), the resulting supernatant was used for the assay. Maltase, sucrose, and glucoamylase inhibitory activity were assay by modifying a method developed by Dahlqvist. The inhibitory activity was determined by incubating a solution of an enzyme (50 μL), 0.1 M phosphate buffer (pH 7.0, 100 μL) containing 0.4 mg/mL sucrose or maltose or 1% soluble starch, and a solution (50 μL) with various concentrations of sample solution (between 0.05 and 1.0 mM) at 37 °C for 30 min. The reaction mixture was heated in a boiling water bath to stop the reaction for 10 min, and the amount of liberated glucose was then measured by the glucose oxidase. The inhibitory activity was calculated from the formula as follows. Inhibition (%) = (C − T)/C × 100, where C is the enzyme activity without inhibitor, and T is the enzyme activity with inhibitor.

Rat Intestinal Maltase = test: Maltase inhibition assay (rat intestinal acetone powder); type: biochemical; conditions: for IC50 Rat Intestinal Maltase: mean ± S.D.
Method: as §2

[5] = target: Rat Intestinal Glucoamylase (Rattus norvegicus, UniProt D3ZTX4); test: Glucoamylase inhibition assay (rat intestinal acetone powder); type: biochemical; conditions: read-out: glucoamylase inhibition
Method: as §2

[6] = two highest tested doses 5 and 7 mg/mL
[7] = starch loading, 30 min, vs pyridoxine-treated group
[8] = starch loading, 30 min, vs starch (control) group
[9] = sucrose loading, 30 min, vs pyridoxine-treated group

IC50 Rat intestinal α-Glucosidase [3] | IC50 [4] [mM] | IC50 (Rat Intestinal SUCRASE) [mM] | IC50 Rat Intestinal Maltase (Rat Intestinal Maltase) | SMILES | pancreatic α-amylase inhibitory effect [4, 6] | blood glucose level (Sprague-Dawley (SD) rats [1]) [mg/dL] | increase in blood glucose level (Sprague-Dawley (SD) rats [1]) [mg/dL] | BGL AUCt (Sprague-Dawley (SD) rats [1]; sample 0.1 g/kg oral) | blood glucose level (Sprague-Dawley (SD) rats [2]) [mg/dL] | change (increase) of blood glucose level (Sprague-Dawley (SD) rats [2]) [mg/dL] | BGL AUCt (Sprague-Dawley (SD) rats [2]; sample 0.1 g/kg oral) | also measured
 |  |  |  | C[C@H]1O[C@H](O[C@H]2[C@H](O)[C@@H](O)[C@@H](O[C@H]3[C@H](O)[C@@H](O)C(O)O[C@@H]3CO)O[C@@H]2CO)[C@H](O)[C@@H](O)[C@@H]1N[C@H]1C=C(CO)[C@@H](O)[C@H](O)[C@H]1O (stereo partly drawn) [Acarbose, reference compound] |  |  |  |  |  |  |  | BGL AUCt (Sprague-Dawley (SD) rats [1]; Acarbose 0.005 g/kg oral): 228.88 ± 13.09 ^a h∙mg/dL; BGL AUCt (Sprague-Dawley (SD) rats [2]; Acarbose 0.005 g/kg oral): 237.94 ± 8.82 ^a h∙mg/dL
4.85 ± 0.06 ^a mg/mL | 88.8 | 2.08 | 1.08 ± 0.10 ^a mg/mL | Cc1ncc(CO)c(CN)c1O [Pyridoxamine] | showed α-amylase inhibitory effects |  |  | 275.10 ± 7.31 ^b h∙mg/dL |  |  | 269.14 ± 13.40 ^b h∙mg/dL | 
5.02 ± 0.05 ^a mg/mL | 137 | 1.89 | 0.87 ± 0.08 ^a mg/mL | Cc1ncc(CO)c(CO)c1O [Pyridoxine] |  | 201.78 ± 18.99 | 107.69 ± 18.99 | 274.28 ± 15.62 ^b h∙mg/dL | 192.50 ± 10.10 | 92.86 ± 10.10 | 290.64 ± 15.55 ^c h∙mg/dL | pancreatic α-amylase inhibitory effect ([4]; highest tested dose 7 mg/mL): no inhibitory effects

SMILES | IC50 Rat intestinal α-Glucosidase [3] | IC50 [4] [mM] | IC50 (Rat Intestinal SUCRASE) [mM] | IC50 Rat Intestinal Maltase (Rat Intestinal Maltase) | pancreatic α-amylase inhibitory effect [4, 6] | blood glucose level (Sprague-Dawley (SD) rats [1]) [mg/dL] | increase in blood glucose level (Sprague-Dawley (SD) rats [1]) [mg/dL] | BGL AUCt (Sprague-Dawley (SD) rats [1]; sample 0.1 g/kg oral) | blood glucose level (Sprague-Dawley (SD) rats [2]) [mg/dL] | change (increase) of blood glucose level (Sprague-Dawley (SD) rats [2]) [mg/dL] | BGL AUCt (Sprague-Dawley (SD) rats [2]; sample 0.1 g/kg oral) | also measured
Cc1ncc(CO)c(C=O)c1O [Pyridoxal] | 4.14 mg/mL and 4.15 ± 0.17 ^b mg/mL | 77.3 ± 7.3 | 1.91 ± 0.179 | 0.38 mg/mL and 0.37 ± 0.13 ^b mg/mL | showed α-amylase inhibitory effects | 175.36 ± 10.84 | 79.78 ± 10.84 | 268.27 ± 8.80 ^b h∙mg/dL | 164.74 ± 12.06 | 64.88 ± 12.06 | 272.99 ± 5.96 ^b h∙mg/dL | α-glucosidase inhibition ([3]; highest tested dose 7 mg/mL): 79.83%; maltase inhibitory activity (Rat Intestinal Maltase; 0.5 mg/mL): 48.39%; maltase inhibitory activity (Rat Intestinal Maltase; 1 mg/mL): 70.10%; maltase inhibitory activity (Rat Intestinal Maltase; 2 mg/mL): 83.29%; inhibition at 200 µg/mL [5]: 42.8%; inhibition at 500 µg/mL [5]: 66.1%; inhibition at 1000 µg/mL [5]: 78.6%; decrease of maximum blood glucose level (Cmax) compared to control (Sprague-Dawley (SD) rats [1]; starch loading test, p < 0.05): ~19%; increase in blood glucose level, less than that of pyridoxine-treated group (Sprague-Dawley (SD) rats [1]; [7]): 27.91 mg/dL; suppression of blood glucose level compared to pyridoxine-treated group (Sprague-Dawley (SD) rats [1]; [7]): 26.41 mg/dL; increase in blood glucose level, less than that of starch group (Sprague-Dawley (SD) rats [1]; [8]): 44.45 mg/dL; suppression of blood glucose level compared to starch group (Sprague-Dawley (SD) rats [1]; [8]): 41.56 mg/dL; blood glucose reduction compared to control (Sprague-Dawley (SD) rats [2]; at 30 min, loading test not given): around 18%; decrease of maximum blood glucose level (Cmax) compared to control (Sprague-Dawley (SD) rats [2]; sucrose loading test, p < 0.05): about 18%; blood glucose level, less than that of pyridoxine-treated group (Sprague-Dawley (SD) rats [2]; [9]): 27.76 mg/dL; change of blood glucose level, lower than pyridoxine-treated group (Sprague-Dawley (SD) rats [2]; [9]): 27.98 mg/dL; blood glucose level, less than that of sucrose-treated group (Sprague-Dawley (SD) rats [2]; sucrose loading, 30 min, vs sucrose (control) group): 35.89 mg/dL
